Experimental findings from patent US11351178B2, “Selective HDAC6 inhibitors” (ITALFARMACO S.P.A., priority 2017, dated 2022) are described below.

The target of one series is T1, HDAC2 (Homo sapiens, UniProt Q92769).
T1 construct: purchased BPS 50002
The experiment in a line: Enzymatic test HDAC2. It is filed as biochemical. Particulars: Table 3.

Another series has as its target T2, HDAC7 (Homo sapiens, UniProt Q8WUI4).
T2 construct: purchased BPS 50007
T2 sequence (Q8WUI4 518-952 limits assumed): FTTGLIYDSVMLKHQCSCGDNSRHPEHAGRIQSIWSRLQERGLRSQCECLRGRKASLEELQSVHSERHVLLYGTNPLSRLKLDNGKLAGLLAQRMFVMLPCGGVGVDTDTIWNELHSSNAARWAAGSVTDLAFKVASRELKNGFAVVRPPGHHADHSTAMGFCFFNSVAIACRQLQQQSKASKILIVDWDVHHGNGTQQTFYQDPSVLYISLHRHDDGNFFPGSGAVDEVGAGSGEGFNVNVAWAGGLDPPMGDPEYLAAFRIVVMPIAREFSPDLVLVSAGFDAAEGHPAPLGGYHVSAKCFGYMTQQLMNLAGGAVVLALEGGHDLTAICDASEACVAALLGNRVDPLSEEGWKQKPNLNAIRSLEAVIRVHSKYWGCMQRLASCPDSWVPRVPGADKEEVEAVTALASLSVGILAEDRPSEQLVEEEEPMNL
The experiment in a line: Enzymatic test HDAC7. Particulars: Table 3. It is filed as biochemical. The method, then: (§1) After a period of incubation at 30° C. (incubation times vary for different isoforms and are shown in table 1) 25 μL of solution containing the substrate were added. As substrate, FLUOR DE LYS® deacetylase substrate (Enzo Life Sciences, cat #BML-K1104, FdL), FLUOR DE LYS®-Green substrate (Enzo Life Sciences, cat #BML-K1572 FdL_G) and trifluoroacetyl-L-lysine (Tfal)-2× concentrated solution in 25 mM Tris-HCl, pH 8, 130 mM NaCl 0.05% Tween-20 10% glycerol) were used. Following a reaction period at 30° C.

The next series has as its target T3, HDAC9 (Homo sapiens, UniProt Q9UKV0).
T3 construct: purchased BPS 50009
The experiment in a line: Enzymatic test HDAC9. It is filed as biochemical. The conditions noted are these: Table 3. The method, then: as §1

For series [1], the system named is B 697 promyelocytic cell line. The experiment in a line: Cytotoxicity on 697 cell line (CellTiter 96). It is filed as cell-based. Particulars: 72 hours incubation, read-out: 697 TOXICITY
The method, boiled down: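 Cells seeded (2×10^4/well for 697, 5×10^5/well for PBMCs); compounds added after 24 h at 1–10000 nM (697) or 1.5–10000 nM (PBMCs) and incubated 72 h. Viability read by CellTiter 96 Aqueous One tetrazolium assay of mitochondrial function.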

A short description of series [2]: Stability in human plasma. Format: in vitro ADME. The conditions noted are these: after 4 hours, 37° C. The method, boiled down:
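Compounds incubated at 37° C in rat or human plasma at 50 μM (UV/HPLC) or 1 or 2 μM (LC-MS/MS) for 0–4 h. Reaction stopped with acidified acetonitrile on ice; percent remaining versus initial amount and plasma half-life calculated.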

Another series addresses T4, HDAC10 (Homo sapiens, UniProt Q969S8).
T4 construct: purchased BPS 50010
T4 sequence (Q969S8 1-669): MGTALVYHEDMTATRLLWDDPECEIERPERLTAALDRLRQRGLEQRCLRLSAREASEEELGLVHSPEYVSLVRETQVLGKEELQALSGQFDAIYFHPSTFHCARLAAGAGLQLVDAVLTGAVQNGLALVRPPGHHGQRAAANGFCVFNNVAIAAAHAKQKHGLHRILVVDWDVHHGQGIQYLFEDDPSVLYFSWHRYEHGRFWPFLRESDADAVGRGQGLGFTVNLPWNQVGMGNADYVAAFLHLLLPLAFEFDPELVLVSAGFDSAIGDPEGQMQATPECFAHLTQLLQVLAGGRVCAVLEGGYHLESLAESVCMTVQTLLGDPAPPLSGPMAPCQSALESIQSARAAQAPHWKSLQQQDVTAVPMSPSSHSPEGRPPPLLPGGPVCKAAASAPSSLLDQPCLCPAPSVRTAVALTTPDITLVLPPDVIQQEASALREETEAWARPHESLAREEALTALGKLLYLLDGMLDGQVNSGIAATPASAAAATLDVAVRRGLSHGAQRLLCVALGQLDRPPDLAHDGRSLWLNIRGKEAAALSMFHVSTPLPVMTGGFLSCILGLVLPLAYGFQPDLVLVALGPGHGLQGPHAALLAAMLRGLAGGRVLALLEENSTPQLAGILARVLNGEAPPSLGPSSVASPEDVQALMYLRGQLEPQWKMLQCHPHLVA
The experiment in a line: Enzymatic test HDAC10. It is filed as biochemical. Particulars: Table 3.

The next series concerns human PBMCs. The experiment in a line: Mixed Lymphocytes Reaction (MLR) with human PBMCs (IFN-γ, TNF-α, IL-6). Format: cell-based. Particulars: PBMC, 144 h, two-way MLR, 6 days, 1 μM, negative = induction. The method, then:
In order to study HDAC6 inhibitors ability to inhibit the activation of allogenic T CD4+ cells, a Mixed Lymphocytes Reaction (MLR or mixed lymphocyte culture, CLM) assay was performed. This is a reaction involving blast transformation of in vitro cultured lymphocytes in the presence of allogeneic lymphocytes. There is the so-called “two-way” reaction wherein the two lymphocyte populations stimulate each other to proliferate, and the so-called “one way” reaction, wherein the proliferation of one of the two populations is inhibited by mitomycin C or irradiation, these cells provide proliferation stimulus (stimulator) to the so-called “responder” cells.
Human peripheral blood mononuclear cells (PBMCs) used in MLR were obtained by Ficoll gradient separation from Buffy Coat of healthy donors.
We used a two-way MLR. The cells from the two donors were plated at 1:1 ratio (allogenic stimulation) to the final concentration of 2×10^5 per well in U-bottom 96 well plates in RPMI 1640 medium with 10% FBS and antibiotics. As a control we individually plated the cells from each donor (singenic stimulus). The experiment for each inhibitor was set in deduplicate for allogeneic stimuli and in quintuplicate for singenic stimuli. The cells were cultured for 6 days in an incubator at 37° C.
After 6 days the effect of the test compounds was evaluated by measuring the production of pro-inflammatory cytokines recognized to be characteristics of this assay.
For this purpose, the culture supernatant was harvested and used for IFN-γ, TNF-α and IL-6 inflammatory cytokine assay.
The JAK inhibitor ruxolitinib was used as the active reference compound in the test.
Values in the table indicate the inhibition percentages. Negative values indicate an induction.

Setting [3] is: read-out: MLR IFN-γ inhibition percentage.
Setting [4] is: read-out: MLR IL-6 inhibition percentage.
The mark [5] stands for this setting: read-out: MLR TNF-α inhibition percentage.

Where two headings read alike, the source gives them in different places.

T3 sequence (Q9UKV0 1-1066 isoform Q9UKV0-5): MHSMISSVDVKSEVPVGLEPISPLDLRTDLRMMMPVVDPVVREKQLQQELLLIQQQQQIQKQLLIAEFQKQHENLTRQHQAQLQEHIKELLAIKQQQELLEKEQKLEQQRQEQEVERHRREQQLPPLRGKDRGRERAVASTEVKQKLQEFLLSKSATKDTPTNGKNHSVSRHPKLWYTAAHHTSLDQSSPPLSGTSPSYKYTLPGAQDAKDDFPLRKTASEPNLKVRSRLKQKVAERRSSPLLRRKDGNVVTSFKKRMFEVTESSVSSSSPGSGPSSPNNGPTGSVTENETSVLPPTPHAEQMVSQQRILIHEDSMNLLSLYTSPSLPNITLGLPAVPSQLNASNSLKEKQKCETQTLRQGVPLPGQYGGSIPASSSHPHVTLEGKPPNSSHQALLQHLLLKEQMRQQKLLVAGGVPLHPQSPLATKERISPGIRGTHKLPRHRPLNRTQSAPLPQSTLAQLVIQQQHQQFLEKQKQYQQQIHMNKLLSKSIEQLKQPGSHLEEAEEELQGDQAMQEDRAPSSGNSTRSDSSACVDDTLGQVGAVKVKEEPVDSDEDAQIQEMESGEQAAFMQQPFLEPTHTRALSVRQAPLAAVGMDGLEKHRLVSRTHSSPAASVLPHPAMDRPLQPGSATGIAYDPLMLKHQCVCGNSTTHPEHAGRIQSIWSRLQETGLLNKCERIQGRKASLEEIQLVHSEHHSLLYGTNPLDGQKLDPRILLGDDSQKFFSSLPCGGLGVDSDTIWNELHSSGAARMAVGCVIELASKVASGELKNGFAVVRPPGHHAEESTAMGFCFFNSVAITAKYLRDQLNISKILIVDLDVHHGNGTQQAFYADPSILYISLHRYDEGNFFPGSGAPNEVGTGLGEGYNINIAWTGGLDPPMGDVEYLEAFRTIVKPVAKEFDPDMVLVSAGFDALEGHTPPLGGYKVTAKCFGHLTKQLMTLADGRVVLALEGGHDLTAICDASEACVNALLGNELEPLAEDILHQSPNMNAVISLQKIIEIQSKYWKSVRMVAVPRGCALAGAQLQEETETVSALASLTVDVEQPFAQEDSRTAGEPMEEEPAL
T1 sequence (Q92769 whole entry): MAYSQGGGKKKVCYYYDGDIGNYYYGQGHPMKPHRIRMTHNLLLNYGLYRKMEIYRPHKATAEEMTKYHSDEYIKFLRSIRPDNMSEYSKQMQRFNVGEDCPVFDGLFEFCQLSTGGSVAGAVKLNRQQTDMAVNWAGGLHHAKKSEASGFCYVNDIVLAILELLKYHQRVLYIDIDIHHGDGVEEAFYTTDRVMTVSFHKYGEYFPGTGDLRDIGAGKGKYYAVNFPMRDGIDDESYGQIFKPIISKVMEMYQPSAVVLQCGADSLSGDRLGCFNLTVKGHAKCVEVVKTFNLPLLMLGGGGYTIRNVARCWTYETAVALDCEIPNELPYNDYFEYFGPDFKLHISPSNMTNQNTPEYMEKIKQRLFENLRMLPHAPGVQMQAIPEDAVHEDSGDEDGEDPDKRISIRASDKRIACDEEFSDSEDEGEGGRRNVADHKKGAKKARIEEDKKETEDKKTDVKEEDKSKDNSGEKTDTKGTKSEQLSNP

For the compound `COc1ccc(C(=O)N[C@@H](Cc2cscn2)c2nc(Cc3ccc(C(=O)NO)cc3)no2)cc1OC` [comp. 1, (S)—N-(1-(3-(4-(hydroxycarbamoyl)benzyl)-1,2,4-oxadiazol-5-yl)-2-(thiazol-4-yl)ethyl)-3,4-dimethoxybenzamide], the IC50 against HDAC2 came out at 6660 nM; on HDAC7 it was 3530 nM; against HDAC9, 5870 nM; in series [1], 10400 nM; at HDAC10 it was 2480 nM. Moreover, in series [2], the “residual percentage in human plasma” value was 102%.

Regarding `Cn1c(Sc2c(F)cc(C(=O)NO)cc2F)nnc1-c1cccc2ccccc12` [comp. 2, 3,5-difluoro-N-hydroxy-4-((4-methyl-5-(naphthalen-1-yl)-4H-1,2,4-triazol-3-yl)thio)benzamide], the IC50 at HDAC2 was more than 30000 nM; against HDAC7 it was 1090 nM; on HDAC9, 592 nM; in series [1] it was 6080 nM; on HDAC10 it was 14100 nM. In addition, in series [2], the “residual percentage in human plasma” value is reported as 71%.

On to `O=C(NO)c1cc(F)c(Cn2nnnc2-c2ccccn2)c(F)c1` [comp. 13, 3,5-difluoro-N-hydroxy-4-((5-(pyridin-2-yl)-1H-tetrazol-1-yl)methyl)benzamide], for which the IC50 against HDAC2 came out at 11400 nM; against HDAC7 it was 623 nM; against HDAC9 it was 640 nM; at HDAC10, 2680 nM. Besides, the “residual percentage in human plasma” value in series [2] is reported as 94%. The inhibition at 1 µM was -10.9% with human PBMCs (setting [3]), 38.3% in the series with human PBMCs (setting [4]) and 37.2% in the series on human PBMCs (setting [5]).

As to `CN(C)S(=O)(=O)c1cccc(-c2nnn(Cc3ccc(C(=O)NO)cc3)n2)c1` [comp. 59, 4-[[5-[3-(dimethylsulfamoyl)phenyl]tetrazol-2-yl]methyl]benzenecarbohydroxamic acid], the IC50 against HDAC2 came out at 2320 nM; on HDAC7, 820 nM; against HDAC9, 1540 nM; at HDAC10 it was 542 nM.

`CCN(CC)S(=O)(=O)c1cccc(-c2nnc(Sc3ccc(C(=O)NO)cc3)n2N)c1` [comp. 61, 4-[[4-amino-5-[3-(diethylsulfamoyl)phenyl]-1,2,4-triazol-3-yl]sulfanyl]benzenecarbohydroxamic acid]: the IC50 against HDAC2 was determined as 6910 nM; against HDAC7, 529 nM; against HDAC9 it was 884 nM; on HDAC10 it was 991 nM. The results for the inhibition at 1 µM in the series on human PBMCs (setting [3]) and in the series with human PBMCs (setting [4]) were 16% and -21%, respectively.

With `O=C(NO)c1cc(F)c(Cn2nnc(-c3cccs3)n2)c(F)c1` [comp. 65, 3,5-difluoro-4-[[5-(2-thienyl)tetrazol-2-yl]methyl]benzenecarbohydroxamic acid], the IC50 against HDAC2 was determined as 17700 nM; at HDAC7 it was 1080 nM; against HDAC9, 995 nM; against HDAC10 it was 1450 nM. The inhibition at 1 µM turned out to be 45% in the series on human PBMCs (setting [3]), 5.4% in the series on human PBMCs (setting [4]) and 67.3% in the series on human PBMCs (setting [5]).

Take `CCN(CC)S(=O)(=O)c1cccc(-c2nnc(Sc3ccc(C(=O)NO)cc3)n2C)c1` [comp. 66, 4-[[5-[3-(diethylsulfamoyl)phenyl]-4-methyl-1,2,4-triazol-3-yl]sulfanyl]benzenecarbohydroxamic acid]: the IC50 was found to be 1040 nM at HDAC2, 214 nM against HDAC7, 168 nM against HDAC9 and 1340 nM against HDAC10. Also, the inhibition at 1 µM in the series on human PBMCs (setting [3]) turned out to be 53%; in the series with human PBMCs (setting [4]), 12.9%; in the series with human PBMCs (setting [5]) it was 42.8%.

Regarding `CN(C)c1cccc(-c2nnc(Sc3ccc(C(=O)NO)cc3)n2C)c1` [comp. 77, 4-[[5-[3-(dimethylamino)phenyl]-4-methyl-1,2,4-triazol-3-yl]sulfanyl]benzenecarbohydroxamic acid], the IC50 came to 5230 nM against HDAC2; 1360 nM against HDAC7; 1730 nM against HDAC9; 11100 nM in series [1]; 2810 nM against HDAC10. Besides, the inhibition at 1 µM worked out at 32.1% in the series with human PBMCs (setting [3]), 34.3% in the series with human PBMCs (setting [4]) and 64.2% with human PBMCs (setting [5]).

`O=C(NO)c1cc(F)c(Cn2nnc(-c3scc4c3OCCO4)n2)c(F)c1` [comp. 79, 4-[[5-(2,3-dihydrothieno[3,4-b][1,4]dioxin-5-yl)tetrazol-2-yl]methyl]-3,5-difluoro-benzenecarbohydroxamic acid]: the IC50 at HDAC2 is 6750 nM; against HDAC7, 1310 nM; against HDAC9, 514 nM; in series [1], 22200 nM; against HDAC10, 1910 nM. The values for the inhibition at 1 µM in the series on human PBMCs (setting [3]), in the series with human PBMCs (setting [4]) and in the series on human PBMCs (setting [5]) were 27.5%, 38.6% and 50.9%, respectively.

For `CN(C)c1cccc(-c2nnc(Sc3c(F)cc(C(=O)NO)cc3F)n2C)c1` [comp. 80, 4-[[5-[3-(dimethylamino)phenyl]-4-methyl-1,2,4-triazol-3-yl]sulfanyl]-3,5-difluoro-benzenecarbohydroxamic acid], the IC50 was 13800 nM at HDAC2, 764 nM on HDAC7, 426 nM on HDAC9 and 5580 nM on HDAC10.

On to `Cc1cc(-c2nnc(Sc3ccc(C(=O)NO)cc3)n2C)nn1C` [comp. 85, 4-[[5-(1,5-dimethylpyrazol-3-yl)-4-methyl-1,2,4-triazol-3-yl]sulfanyl]benzenecarbohydroxamic acid], for which the IC50 was 1700 nM against HDAC2; 514 nM against HDAC7; 452 nM at HDAC9; 1160 nM in series [1]; 954 nM at HDAC10. The inhibition at 1 µM was 51.8% with human PBMCs (setting [3]), 66.9% in the series with human PBMCs (setting [4]) and 73.8% in the series with human PBMCs (setting [5]).

For `Cn1c(Sc2c(F)cc(C(=O)NO)cc2F)nnc1C(c1ccccc1)c1ccccc1` [comp. 98, 4-[(5-benzhydryl-4-methyl-1,2,4-triazol-3-yl)sulfanyl]-3,5-difluoro-benzenecarbohydroxamic acid], the IC50 worked out at 4240 nM against HDAC2, 1990 nM against HDAC7, 844 nM at HDAC9 and 1480 nM against HDAC10.
